Assays:
LPA 18:2 in rat plasma = assay: Rat whole blood (plasma) LPA assay; assay type: biochemical; settings: 2 h at 37 C, LPA 18:2 by LC-MS/MS
Description: Whole blood is collected from rats or mouse by exsanguinations on sodium heparin tube, then after centrifugation at 3000 rpm for 15 min at 4° C., plasma is stored at −80° C. Compounds are diluted in DMSO in concentration dependent manner then 0.5 μL are dispensed into 96-well plate placed in ice. Plasma is defrosted on ice then 49.5 μL of plasma are added into the well containing 0.5 μL of compound (1% DMSO final). Plates are covered with a lid in polypropylene and incubated at +37° C., 5% CO2, for 2 h under gentle shaking (except controls which are stored at −20° C.).
At the end of the incubation, controls are defrosted in ice and transferred in the incubated plates for LC-MS/MS analysis with a non GLP-validated method. For the analysis, plasma proteins from a 10 μL incubated plates are precipitated with an excess of methanol containing the internal standard, LPA 17:0. After centrifugation, the corresponding supernatant is injected on a C18 column. Analytes are eluted out of the column under isocratic conditions. An API5500 QTRAP mass spectrometer (ABSciex™) is used for the detection of LPA 18:2. No calibration curve is prepared for LPA 18:2, however relative quantities are evaluated based on the peak area.

hENPP2 [1] = molecular target: T1, hENPP2 (UniProtKB/SwissProt Q13822) (Homo sapiens (Human), UniProt Q13822); assay: hENPP2 biochemical assay, LPC as substrate; settings: LPC (palmitoyl 16:0) as substrate
Method in brief: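 Human ENPP2 in 50 mM Tris-HCl pH 8.5, 500 mM NaCl, 5 mM KCl, 10 mM CaCl2, 0.1% fatty-acid-free BSA, reacted 30 min at 37 °C with LPC 16:0 (150 µM solution added 1:1). Released choline measured via choline oxidase/peroxidase/TOOS/4-aminoantipyrine quinoneimine dye at 555 nm; IC50 reported.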

hENPP2 [2] = molecular target: T1, hENPP2; assay: fluorescent hENPP2 biochemical assay, FS-3 as substrate; settings: read-out: FS3-IC50
Method in brief: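 IC50 values come from fluorescence gained as FS-3 is hydrolysed (ex 485, em 520 nm). The reaction, started by adding 0.75 μM FS-3 solution, runs 30 min at 30° C after a 30 min room-temperature preincubation of compound with enzyme. Buffer: Tris-HCl pH 8.0 with NaCl, KCl, MgCl2, CaCl2 and 0.1% BSA.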

Row | SMILES | IC50 (LPA 18:2 in rat plasma) [nM] | IC50 (hENPP2 [1]) [nM] | IC50 (hENPP2 [2]) [nM]
1 | CCc1nc2c(F)cc(N3CCN(CC(=O)N4CC[C@@H](O)C4)CC3)cn2c1N(C)c1nc(-c2ccc(F)cc2)cs1 [Compound 16, (R)-2-(4-(2-ethyl-8-fluoro-3-((4-(4-fluorophenyl)thiazol-2-yl)(methyl)amino)imidazo[1,2-a]pyridin-6-yl)piperazin-1-yl)-1-(3-hydroxypyrrolidin-1-yl)ethanone] | 500 to 1000 |  | 
2 | CCc1nc2cc(F)c(N3CCN(CC(=O)N4CC(O)C4)CC3)cn2c1N(C)c1nc(-c2ccc(F)cc2)cs1 [Compound 19, 2-[4-(2-Ethyl-7-fluoro-3-{[4-(4-fluoro-phenyl)-thiazol-2-yl]-methyl-amino}-imidazo[1,2-a]pyridin-6-yl)-piperazin-1-yl]-1-(3-hydroxy-azetidin-1-yl)-ethanone] | > 1000 |  | 
3 | CCc1nc2ccc(N3CCN(CC(=O)N4CC[C@@H](O)C4)CC3)cn2c1N(C)c1nc(-c2ccc(F)cc2)cs1 [Compound 26, (R)-2-(4-(2-ethyl-3-((4-(4-fluorophenyl)thiazol-2-yl)(methyl)amino)imidazo[1,2-a]pyridin-6-yl)piperazin-1-yl)-1-(3-hydroxypyrrolidin-1-yl)ethanone] | > 1000 | 100 to 500 | 
4 | CCc1nc2ccc(N3CCN(Cc4ncco4)CC3)cn2c1N(C)c1nc(-c2ccc(F)cc2)cs1 [Compound 40] | 500 to 1000 | > 1000 | 0.01 to 100
5 | CCc1nc2ccc(N3CCN(C(=O)C4CCN(C(C)=O)C4)CC3)cn2c1N(C)c1nc(-c2ccc(F)cc2)cs1 (stereo not shown) [Compound 48, 1-{3-[4-(2-Ethyl-3-{[4-(4-fluoro-phenyl)-thiazol-2-yl]-methyl-amino}-imidazo[1,2-a]pyridin-6-yl)-piperazine-1-carbonyl]-pyrrolidin-1-yl}-ethanone] | > 1000 | > 1000 | 
6 | CCc1nc2ccc(C3=CCN(S(C)(=O)=O)CC3)cn2c1N(C)c1nc(-c2ccc(OC(F)(F)F)cc2)cs1 [Compound 72, N-(2-ethyl-6-(1-(methylsulfonyl)-1,2,3,6-tetrahydropyridin-4-yl)imidazo[1,2-a]pyridin-3-yl)-N-methyl-4-(4-(trifluoromethoxy)phenyl)thiazol-2-amine] | > 1000 | 100 to 500 | 
7 | CCc1nc2ccc(C3CCN(S(=O)(=O)CCCN(C)C)CC3)cn2c1N(C)c1nc(-c2ccc(F)cc2)c(CO)s1 [Compound 149, (2-((6-(1-(3-(dimethylamino)propyl-sulfonyl)piperidin-4-yl)-2-ethylimidazo[1,2-a]pyridin-3-yl)(methyl)amino)-4-(4-fluorophenyl)thiazol-5-yl)] | > 1000 | 100 to 500 | 
8 | CCC(=O)N1CCC(c2ccc3nc(CC)c(N(C)c4nc(-c5ccc(F)cc5)c(CO)s4)n3c2)CC1 [Compound 154, 1-(4-(2-ethyl-3-((4-(4-fluorophenyl)-5-(hydroxymethyl)thiazol-2-yl)(methyl)amino)imidazo[1,2-a]pyridin-6-yl)piperidin-1-yl)propan-1-one] | 500 to 1000 | 100 to 500 | 
9 | CCc1nc2ccc(C3=NC(CO)CO3)cn2c1N(C)c1nc(-c2ccc(F)cc2)cs1 (stereo not shown) [Compound 239, (2-(2-ethyl-3-((4-(4-fluorophenyl)thiazol-2-yl)(methyl)amino)imidazo[1,2-a]pyridin-6-yl)-4,5-dihydro-oxazol-4-yl)methanol] |  | > 1000 | 0.01 to 100

The remaining lines, values ahead:

Row | IC50 (LPA 18:2 in rat plasma) [nM] | IC50 (hENPP2 [1]) [nM] | IC50 (hENPP2 [2]) [nM] | SMILES
10 | 100 to 500 |  |  | CCc1nc2c(C)cc(N3CCN(CC(=O)N4CC(C)(O)C4)CC3)cn2c1N(C)c1nc(-c2ccc(F)cc2)c(C#N)s1 [Compound 3, 2-((2-ethyl-6-(4-(2-(3-hydroxy-3-methylazetidin-1-yl)-2-oxoethyl)piperazin-1-yl)-8-methylimidazo[1,2-a]pyridin-3-yl)(methyl)amino)-4-(4-fluorophenyl)thiazole-5-carbonitrile]
11 | 100 to 500 | 100 to 500 | 0.01 to 100 | CCc1nc2c(C)cc(N3CCN(CC(=O)N4CC[C@@H](O)C4)CC3)cn2c1N(C)c1nc(-c2ccc(F)cc2)c(C#N)s1 [Compound 4, (R)-2-((2-ethyl-6-(4-(2-(3-hydroxypyrrolidin-1-yl)-2-oxoethyl)piperazin-1-yl)-8-methylimidazo[1,2-a]pyridin-3-yl)(methyl)amino)-4-(4-fluorophenyl)thiazole-5-carbonitrile]
12 | 500 to 1000 | 100 to 500 | 0.01 to 100 | CCc1nc2c(C)cc(N3CCN(CC(=O)N4CC[C@H](O)C4)CC3)cn2c1N(C)c1nc(-c2ccc(F)cc2)c(C#N)s1 [Compound 5, (S)-2-((2-ethyl-6-(4-(2-(3-hydroxypyrrolidin-1-yl)-2-oxoethyl)piperazin-1-yl)-8-methylimidazo[1,2-a]pyridin-3-yl)(methyl)amino)-4-(4-fluorophenyl)thiazole-5-carbonitrile]
13 | 100 to 500 |  |  | CCc1nc2c(C)cc(N3CCN(CC(=O)N4CC(O)C4)C(C)(C)C3)cn2c1N(C)c1nc(-c2ccc(F)cc2)c(C#N)s1 [Compound 6, 2-((2-ethyl-6-(4-(2-(3-hydroxyazetidin-1-yl)-2-oxoethyl)-3,3-dimethylpiperazin-1-yl)-8-methylimidazo[1,2-a]pyridin-3-yl)(methyl)amino)-4-(4-fluorophenyl)thiazole-5-carbonitrile]
14 | 100 to 500 |  |  | CCc1nc2c(C)cc(C3CCN(CC(=O)N4CC(O)C4)CC3)cn2c1N(C)c1nc(-c2ccc(F)cc2)c(C#N)s1 [Compound 10, 2-((2-ethyl-6-(1-(2-(3-hydroxyazetidin-1-yl)-2-oxoethyl)piperidin-4-yl)-8-methylimidazo[1,2-a]pyridin-3-yl)(methyl)amino)-4-(4-fluorophenyl)thiazole-5-carbonitrile]
15 | 0.01 to 100 |  |  | CCc1nc2c(F)cc(N3CCN(CC(=O)N4CC(O)C4)CC3)cn2c1N(C)c1nc(-c2ccc(F)cc2)cs1 [Compound 14, 2-(4-(2-ethyl-8-fluoro-3-((4-(4-fluorophenyl)thiazol-2-yl)(methyl)amino)imidazo[1,2-a]pyridin-6-yl)piperazin-1-yl)-1-(3-hydroxyazetidin-1-yl)ethanone]
16 | 500 to 1000 |  |  | CCc1nc2c(F)cc(N3CCN(CC(=O)N4CC[C@H](O)C4)CC3)cn2c1N(C)c1nc(-c2ccc(F)cc2)cs1 [Compound 15, (S)-2-(4-(2-ethyl-8-fluoro-3-((4-(4-fluorophenyl)thiazol-2-yl)(methyl)amino)imidazo[1,2-a]pyridin-6-yl)piperazin-1-yl)-1-(3-hydroxypyrrolidin-1-yl)ethanone]
17 | 0.01 to 100 |  |  | CCc1nc2cc(F)c(N3CCN(CC(=O)N4CC(O)C4)CC3)cn2c1N(C)c1nc(-c2ccc(F)cc2)c(C#N)s1 [Compound 18, 2-[(2-Ethyl-7-fluoro-6-{4-[2-(3-hydroxy-azetidin-1-yl)-2-oxo-ethyl]-piperazin-1-yl}-imidazo[1,2-a]pyridin-3-yl)-methyl-amino]-4-(4-fluoro-phenyl)-thiazole-5-carbonitrile]
18 | 0.01 to 100 | 0.01 to 100 |  | CCc1nc2ccc(N3CCN(CC(=O)N(C)C)CC3)cn2c1N(C)c1nc(-c2ccc(F)cc2)c(C#N)s1 [Compound 140, 2-(4-(3-((5-cyano-4-(4-fluorophenyl)thiazol-2-yl)(methyl)amino)-2-ethylimidazo[1,2-a]pyridin-6-yl)piperazin-1-yl)-N,N-dimethylacetamide]
19 | 0.01 to 100 | 0.01 to 100 |  | CCc1nc2ccc(C3CCN(CC(=O)N4CC[C@@H](O)C4)CC3)cn2c1N(C)c1nc(-c2ccc(F)cc2)c(C#N)s1 [Compound 142, (R)-2-((2-ethyl-6-(1-(2-(3-hydroxypyrrolidin-1-yl)-2-oxoethyl)piperidin-4-yl)imidazo[1,2-a]pyridin-3-yl)(methyl)amino)-4-(4-fluorophenyl)thiazole-5-carbonitrile]
20 | 0.01 to 100 | 0.01 to 100 |  | CCc1nc2ccc(C3CCN(CC(=O)N4CC(CO)C4)CC3)cn2c1N(C)c1nc(-c2ccc(F)cc2)c(C#N)s1 [Compound 144, 2-((2-ethyl-6-(1-(2-(3-(hydroxymethyl)azetidin-1-yl)-2-oxoethyl)piperidin-4-yl)imidazo[1,2-a]pyridin-3-yl)(methyl)amino)-4-(4-fluorophenyl)thiazole-5-carbonitrile]
21 | 100 to 500 | 500 to 1000 |  | CN(c1nc(-c2ccc(F)cc2)c(CO)s1)c1c(CCC#N)nc2ccc(C3CCN(S(C)(=O)=O)CC3)cn12 [Compound 175, 3-(3-((4-(4-fluorophenyl)-5-(hydroxymethyl)thiazol-2-yl)(methyl)amino)-6-(1-(methylsulfonyl)piperidin-4-yl)imidazo[1,2-a]pyridin-2-yl)propanenitrile]

— US9670204B2, “Compounds and pharmaceutical compositions thereof for the treatment of inflammatory disorders” (Galapagos NV, priority 2013, dated 2017)
